One assay addresses Acetylcholinesterase (Electrophorus electricus, UniProt O42275). Put plainly: AChE and BChE Inhibition Activity. The conditions noted are these: pH 8. How it is done:
(§1) Inhibitory activities of AChE and BChE were evaluated by using the Ellman's method [34]. […] For initial screening each compound was dissolved in DMSO (end concentration of DMSO was less than 1% in assay) and tested at a final concentration of 0.5 mM. The compounds with considerable inhibition (more than 50%) were subjected to further analysis by making their 8 to 10 serial dilutions in assay buffer (50 mM Tris-HCl, 0.1 M NaCl and 0.02 M MgCl2, pH 8.0). Reaction mixture comprised of 20 µL assay buffer, 10 µL of test compound, 10 µL of 0.031 U/mL of enzyme (0.5 and 3.4 U/mg of AChE or BuChE respectively). This mixture was incubated at 25 °C for 10 min. After this preincubation, enzymatic reaction was started by addition of 10 µL of 1 mM acetylethiocholine iodide or butyrylthiocholine chloride (depending on the enzyme) and the mixture was incubated again for 15 min. The amount of enzymatic product was esti

Assay [1] addresses Carboxylic ester hydrolase (Equus caballus, UniProt Q9N1N9). The assay can be described thus: AChE and BChE Inhibition Activity. The conditions noted are these: pH 8. As to the method: as §1

Structures are written as SMILES.

Acetylcholinesterase, sequence (O42275 whole entry): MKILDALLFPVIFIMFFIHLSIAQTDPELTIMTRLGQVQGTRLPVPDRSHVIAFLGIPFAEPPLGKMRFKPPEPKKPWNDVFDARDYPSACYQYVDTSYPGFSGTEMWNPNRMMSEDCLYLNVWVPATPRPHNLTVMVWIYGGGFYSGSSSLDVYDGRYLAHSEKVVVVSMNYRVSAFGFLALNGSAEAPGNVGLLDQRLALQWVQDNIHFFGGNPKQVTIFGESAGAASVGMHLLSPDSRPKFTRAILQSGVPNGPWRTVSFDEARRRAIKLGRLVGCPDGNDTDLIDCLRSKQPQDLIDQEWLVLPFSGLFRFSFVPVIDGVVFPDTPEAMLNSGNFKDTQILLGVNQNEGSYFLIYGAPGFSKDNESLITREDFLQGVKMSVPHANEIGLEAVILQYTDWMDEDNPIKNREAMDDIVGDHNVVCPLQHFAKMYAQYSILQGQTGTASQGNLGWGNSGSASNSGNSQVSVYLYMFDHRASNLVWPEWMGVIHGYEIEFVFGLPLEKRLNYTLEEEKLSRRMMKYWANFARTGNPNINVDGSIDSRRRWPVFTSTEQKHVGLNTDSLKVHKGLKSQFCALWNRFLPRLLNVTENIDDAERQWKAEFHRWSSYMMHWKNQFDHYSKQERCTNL
Carboxylic ester hydrolase, sequence (Q9N1N9 whole entry): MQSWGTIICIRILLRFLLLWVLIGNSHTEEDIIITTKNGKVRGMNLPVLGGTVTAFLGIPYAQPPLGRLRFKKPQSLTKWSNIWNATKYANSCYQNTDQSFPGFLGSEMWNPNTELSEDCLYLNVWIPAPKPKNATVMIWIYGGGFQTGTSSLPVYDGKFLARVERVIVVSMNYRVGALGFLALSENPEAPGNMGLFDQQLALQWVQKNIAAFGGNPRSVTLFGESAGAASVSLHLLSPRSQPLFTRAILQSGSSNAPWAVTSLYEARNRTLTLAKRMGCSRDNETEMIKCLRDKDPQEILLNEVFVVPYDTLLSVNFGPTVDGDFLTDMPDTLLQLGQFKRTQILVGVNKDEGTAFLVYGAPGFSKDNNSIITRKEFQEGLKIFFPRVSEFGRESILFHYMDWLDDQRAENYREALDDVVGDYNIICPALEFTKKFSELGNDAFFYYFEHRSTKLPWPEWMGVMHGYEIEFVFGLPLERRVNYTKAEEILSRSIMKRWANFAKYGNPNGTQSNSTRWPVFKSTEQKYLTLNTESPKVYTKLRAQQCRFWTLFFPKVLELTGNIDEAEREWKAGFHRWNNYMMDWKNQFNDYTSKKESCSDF

For `COc1ccccc1C1=C(C#N)C(=C(C#N)c2nnn[nH]2)NC(C)(c2ccccc2OC)C1` (centres undefined) [2-(Cyano(1H-tetrazol-5-yl)methylene)-6-methyl-4,6-bis(2'/2''-methoxyphenyl)-1,2,5,6-tetrahydronicotinonitrile (2g)], the IC50 on Acetylcholinesterase came to 20.3 µM; in assay [1], 0.29 µM.

As for `CC1(c2cccc(Cl)c2)CC(c2cccc(Cl)c2)=C(C#N)C(=C(C#N)c2nnn[nH]2)N1` (centres undefined) [2-(Cyano(1H-tetrazol-5-yl)methylene)-6-methyl-4,6-bis(3'/3''-chlorophenyl)-1,2,5,6-tetrahydronicotinonitrile (2e)], the IC50 is 2.32 µM against Acetylcholinesterase and 2.78 µM in assay [1].

In the case of `COc1cccc(C2=C(C#N)C(=C(C#N)c3nnn[nH]3)NC(C)(c3cccc(OC)c3)C2)c1` (centres undefined) [2-(Cyano(1H-tetrazol-5-yl)methylene)-6-methyl-4,6-bis(3'/3''-methoxyphenyl)-1,2,5,6-tetrahydronicotinonitrile (2f)], the half-maximal inhibitory concentration (IC50) is 5.11 µM at Acetylcholinesterase and 39.2 µM in assay [1].

As for `Cc1cccc(C2=C(C#N)C(=C(C#N)c3nnn[nH]3)NC(C)(c3cccc(C)c3)C2)c1` (centres undefined) [2-(Cyano(1H-tetrazol-5-yl)methylene)-6-methyl-4,6-bis(3'/3''-methylphenyl)-1,2,5,6-tetrahydronicotinonitrile (2c)], the IC50 on Acetylcholinesterase was 20.8 µM; in assay [1], 62.2 µM.

For `CC1(c2ccc(F)cc2)CC(c2ccc(F)cc2)=C(C#N)C(=C(C#N)c2nnn[nH]2)N1` (centres undefined) [2-(Cyano(1H-tetrazol-5-yl)methylene)-6-methyl-4,6-bis(4'/4''-fluorophenyl)-1,2,5,6-tetrahydronicotinonitrile (2d)], the values for the IC50 (against Acetylcholinesterase; in assay [1]) were 2.01 µM and 38.8 µM, respectively.

As to `CC1(c2ccc(O)cc2)CC(c2ccc(O)cc2)=C(C#N)C(=C(C#N)c2nnn[nH]2)N1` (centres undefined) [2-(Cyano(1H-tetrazol-5-yl)methylene)-6-methyl-4,6-bis(4'/4''-hydroxyphenyl)-1,2,5,6-tetrahydronicotinonitrile (2h)], the IC50 against Acetylcholinesterase was 7.42 µM; in assay [1] it was 2.45 µM.

`Cc1ccc(C2=C(C#N)C(=C(C#N)c3nnn[nH]3)NC(C)(c3ccc(C)cc3)C2)cc1` (centres undefined) [2-(Cyano(1H-tetrazol-5-yl)methylene)-6-methyl-4,6-bis(4'/4''-methylphenyl)-1,2,5,6-tetrahydronicotinonitrile (2b)]: the IC50 worked out at 4.45 µM against Acetylcholinesterase and 5.87 µM in assay [1].

For the compound `CC1(c2ccccc2)CC(c2ccccc2)=C(C#N)C(=C(C#N)c2nnn[nH]2)N1` (centres undefined) [2-(Cyano(1H-tetrazol-5-yl)methylene)-6-methyl-4,6-bis(phenyl)-1,2,5,6-tetrahydronicotinonitrile (2a)], the IC50 on Acetylcholinesterase was found to be 7.02 µM; in assay [1] it was 22.1 µM.

On to `CC1(c2ccccc2)CC(c2ccccc2)=C(C#N)C(=C(C#N)C#N)N1` (centres undefined) [2-Dicyanomethylene-6-methyl-4,6-bis(phenyl)-1,2,5,6-tetrahydronicotinonitrile (5a)], for which the IC50 amounted to 20.3 µM at Acetylcholinesterase and 48.1 µM in assay [1].

Turning to `CC1(c2cccc(F)c2)CC(c2cccc(F)c2)=C(C#N)C(=C(C#N)C#N)N1` (centres undefined) [2-[3-cyano-4,6-bis(3-fluorophenyl)-6-methyl-1,2,5,6-tetrahydropyridin-2-ylidene]propanedinitrile (5f)], the values for the IC50 (against Acetylcholinesterase; in assay [1]) were 8.01 µM and 68.8 µM, respectively.

`COc1cccc(C2=C(C#N)C(=C(C#N)C#N)NC(C)(c3cccc(OC)c3)C2)c1` (centres undefined) [2-[3-cyano-4,6-bis(3-methoxyphenyl)-6-methyl-1,2,5,6-tetrahydropyridin-2-ylidene]propanedinitrile (5g)]: the results for the IC50 (at Acetylcholinesterase; in assay [1]) were 1.56 µM and 48.2 µM, respectively.

Take `CC1(c2ccc(F)cc2)CC(c2ccc(F)cc2)=C(C#N)C(=C(C#N)C#N)N1` (centres undefined) [2-[3-cyano-4,6-bis(4-fluorophenyl)-6-methyl-1,2,5,6-tetrahydropyridin-2-ylidene]propanedinitrile (5d)]: the IC50 against Acetylcholinesterase was 11.9 µM; in assay [1], 55.2 µM.

On to `CC1(c2ccc(O)cc2)CC(c2ccc(O)cc2)=C(C#N)C(=C(C#N)C#N)N1` (centres undefined) [2-[3-cyano-4,6-bis(4-hydroxyphenyl)-6-methyl-1,2,5,6-tetrahydropyridin-2-ylidene]propanedinitrile (5h)], for which the IC50 at Acetylcholinesterase came to 5.38 µM; in assay [1] it was 42.2 µM.

Regarding `CC1(c2ccc(I)cc2)CC(c2ccc(I)cc2)=C(C#N)C(=C(C#N)C#N)N1` (centres undefined) [2-[3-cyano-4,6-bis(4-iodophenyl)-6-methyl-1,2,5,6-tetrahydropyridin-2-ylidene]propanedinitrile (5e)], the results for the IC50 (against Acetylcholinesterase; in assay [1]) were 11.2 µM and 45.3 µM, respectively.

Consider `Cc1cccc(C2=C(C#N)C(=C(C#N)C#N)NC(C)(c3cccc(C)c3)C2)c1` (centres undefined) [2-[3-cyano-6-methyl-4,6-bis(3-methylphenyl)-1,2,5,6-tetrahydropyridin-2-ylidene]propanedinitrile (5c)], for which the figures for the IC50 (on Acetylcholinesterase; in assay [1]) were 5.21 µM and 35.9 µM, respectively.

Turning to `Cc1ccc(C2=C(C#N)C(=C(C#N)C#N)NC(C)(c3ccc(C)cc3)C2)cc1` (centres undefined) [2-[3-cyano-6-methyl-4,6-bis(4-methylphenyl)-1,2,5,6-tetrahydropyridin-2-ylidene]propanedinitrile (5b)], the IC50 against Acetylcholinesterase stood at 16.9 µM; in assay [1] it was 36.5 µM.

Turning to `CN(C)C(=O)Oc1cccc([N+](C)(C)C)c1` [m-Trimethylammoniumphenyldimethylcarbamate], the IC50 against Acetylcholinesterase amounted to 19.3 µM; in assay [1], 43.2 µM.

The term IC50 denotes the concentration at which inhibition is half-maximal. Higher therefore signals weaker potency in that assay.
